Measurements taken from patent US9109048B2, “Inhibition of tumor growth” (priority 1998, dated 2015).
≈ marks a conversion by molar mass, not a printed value. Ends that are not written are not given here. Peptide text beside a SMILES is read from it. * marks the point of attachment. Acm = CC(=O)NC*

Experiments:
Format in all cases: cell-based
human red blood cells = experiment: Hemolytic assay; set-up: % Hemolysis: dose or concentration left out as unconfirmed
Description: The hemolytic activities of the peptides were determined using fresh human red blood cells. 8 ml blood was taken from a healthy person. 4 ml blood was transferred to a polycarbonate tube containing heparin to a final concentration of 10 U/ml, and the remaining 4 ml blood was transferred to a glass tube containing EDTA with final concentration of 15% EDTA. The erythrocytes were isolated from heparin-treated blood by centrifugation in 1500 rpm for 10 min and washed three times with phosphate-buffered saline (PBS) to remove plasma and buffy coat. The cell pellet was resuspended in PBS to make the final volume of 4 ml. The peptide was diluted to a concentration of 2 mg/ml and 0.1 mg/ml. The peptide was further diluted to the concentrations as stated in Table 1. For each tube PBS was added first, then RBCs and peptide solutions. The hematocrit in the blood treated with EDTA was determined after 30 min with Sysmex K-1000, and the resuspended RBCs were diluted into 10% hematocrit. RBCs in PBS (1%) with and without peptides (Table 18) were incubated in a shaker at 37° for 1 hour and then centrifuged at 4000 rpm for 5 min. The supernatant were carefully transferred to new polycarbonate tubes and the absorbance of the supernatant was measured at 540 nm. Baseline hemolysis was hemoglobin released in the presence of PBS, and 100% hemolysis was hemoglobin released in the presence of 0.1% Triton X-100.

[1] = test system: Escherichia coli ATCC 25922; experiment: MIC (minimum inhibitory concentration) test, microdilution
Description: (§1) The bacterial strains used were: Escherichia coli ATCC 25922 and Staphylococcus aureus ATCC 25923. All strains were stored at −70° C. The bacteria were grown in 2% Bacto Peptone water (Difco 1807-17-4). All tests were performed with bacteria in mid-logarithmic growth phase. Determination of the minimum inhibitory concentration (MIC) of the peptides for bacterial strains were performed in 1% Bacto Peptone water. A standard microdilution technique with an inoculum of 2×10^6 CFU/ml was used. All assays were performed in triplets. Since the peptides are positively charged and therefore could adhere to the plastic wells, we controlled the actual concentration of the peptides in the solution by HPLC. There was no difference between the concentration of the peptides before or after adding the solution to the plastic wells.

[2] = test system: Staphylococcus aureus ATCC 25923; experiment: as above
Description: as §1

| Molecule | MIC E. coli ([1]; ATCC 25922) | Minimum inhibitory concentration (MIC) E. coli ATCC 25922 ([1]; Table 1, value in parentheses) | MIC S. aureus ([2]; ATCC 25923) | Minimum inhibitory concentration (MIC) S. aureus ATCC 25923 ([2]; Table 1, value in parentheses) | other results |
| --- | --- | --- | --- | --- | --- |
| CSCC[C@@H](NC(=O)[C@@H](CCCNC(=N)N)NC(=O)[C@@H](Cc1c[nH]c2ccccc12)NC(=O)[C@@H](CCC(N)=O)NC(=O)[C@@H](Cc1c[nH]c2ccccc12)NC(=O)[C@@H](CCCNC(=N)N)NC(=O)[C@@H](CCCNC(=N)N)NC(=O)[C@@H](CSCNC(C)=O)NC(=O)[C@@H](CCCCN)NC(=O)[C@H](N)Cc1ccccc1)C(=O)N[C@H](CCCCN)C(=O)N[C@H](CCCCN)C(=O)N[C@H](CC(C)C)C(=O)NCC(=O)N[C@H](C)C(=O)O [Enantio LFB 17-31] |  |  |  |  | % Hemolysis (human red blood cells): 3.05% |
| CSCC[C@H](NC(=O)[C@H](CCCNC(=N)N)NC(=O)[C@H](Cc1c[nH]c2ccccc12)NC(=O)[C@H](CCC(N)=O)NC(=O)[C@H](Cc1c[nH]c2ccccc12)NC(=O)[C@H](CCCNC(=N)N)NC(=O)[C@H](Cc1ccccc1)NC(=O)[C@H](CSCNC(C)=O)NC(=O)[C@H](CCCCN)NC(=O)[C@@H](N)CCCCN)C(=O)N[C@@H](CCCCN)C(=O)N[C@@H](CCCCN)C(=O)N[C@@H](CC(C)C)C(=O)NCC(=O)N[C@@H](C)C(=O)O [LFB F4K1] (H-KKC(Acm)FRWQWRMKKLGA-OH; N-terminus assumed) | 20 µg/mL (≈ 9.82 µM) | 10 µM | 200 µg/mL (≈ 98.2 µM) | 100 µM |  |
| CSCC[C@H](NC(=O)[C@H](CCCNC(=N)N)NC(=O)[C@H](Cc1c[nH]c2ccccc12)NC(=O)[C@H](CCC(N)=O)NC(=O)[C@H](Cc1c[nH]c2ccccc12)NC(=O)[C@H](CCCNC(=N)N)NC(=O)[C@H](CCCNC(=N)N)NC(=O)[C@H](CSCNC(C)=O)NC(=O)[C@H](CCCCN)NC(=O)[C@@H](N)CCCCN)C(=O)N[C@@H](CCCCN)C(=O)N[C@@H](CCCCN)C(=O)N[C@@H](CC(C)C)C(=O)NCC(=O)N[C@@H](C)C(=O)O [LFB K1] (H-KKC(Acm)RRWQWRMKKLGA-OH; N-terminus assumed) | 60 µg/mL (≈ 29.3 µM) | 30 µM | 100 µg/mL (≈ 48.9 µM) | 50 µM |  |
| CC[C@H](C)[C@H](NC(=O)[C@H](CO)NC(=O)[C@@H]1CCCN1C(=O)[C@H](C)NC(=O)CNC(=O)[C@H](CC(C)C)NC(=O)[C@H](CCCCN)NC(=O)[C@H](CCCNC(=N)N)NC(=O)[C@H](CCSC)NC(=O)[C@H](CCCNC(=N)N)NC(=O)[C@H](CCCNC(=N)N)NC(=O)[C@H](CCC(N)=O)NC(=O)[C@H](Cc1c[nH]c2ccccc12)NC(=O)[C@H](CCC(N)=O)NC(=O)[C@H](Cc1ccc(O)cc1)NC(=O)[C@H](CSCNC(C)=O)NC(=O)[C@H](CCCCN)NC(=O)[C@@H](N)CO)C(=O)N[C@H](C(=O)N[C@@H](CSCNC(C)=O)C(=O)N[C@H](C(=O)N[C@@H](CCCNC(=N)N)C(=O)N[C@@H](CCCNC(=N)N)C(=O)N[C@H](C(=O)N[C@@H](CO)C(=O)O)[C@@H](C)O)C(C)C)[C@@H](C)O [LFC (17-41)] (H-SKC(Acm)YQWQRRMRKLGAPSITC(Acm)VRRTS-OH) |  |  |  |  | Minimum inhibitory concentration (MIC) E. coli ATCC 25922 ([1]; ATCC 25922): 750 µg/mL; Minimum inhibitory concentration (MIC) S. aureus ATCC 25923 ([2]; ATCC 25923): 1000 µg/mL |
| CSCC[C@H](NC(=O)[C@H](CCCCN)NC(=O)[C@H](CCCCN)NC(=O)[C@H](CC(C)C)NC(=O)CNC(=O)[C@H](C)N)C(=O)N[C@@H](CCCNC(=N)N)C(=O)N[C@@H](Cc1c[nH]c2ccccc12)C(=O)N[C@@H](CCC(N)=O)C(=O)N[C@@H](Cc1c[nH]c2ccccc12)C(=O)N[C@@H](CCCNC(=N)N)C(=O)N[C@@H](CCCNC(=N)N)C(=O)N[C@@H](CSCNC(C)=O)C(=O)N[C@@H](CCCCN)C(=O)N[C@@H](Cc1ccccc1)C(=O)O [Retro LFB 17-31] |  |  |  |  | % Hemolysis (human red blood cells): 2.01% |
| CSCC[C@@H](NC(=O)[C@@H](CCCCN)NC(=O)[C@@H](CCCCN)NC(=O)[C@@H](CC(C)C)NC(=O)CNC(=O)[C@@H](C)N)C(=O)N[C@H](CCCNC(=N)N)C(=O)N[C@H](Cc1c[nH]c2ccccc12)C(=O)N[C@H](CCC(N)=O)C(=O)N[C@H](Cc1c[nH]c2ccccc12)C(=O)N[C@H](CCCNC(=N)N)C(=O)N[C@H](CCCNC(=N)N)C(=O)N[C@H](CSCNC(C)=O)C(=O)N[C@H](CCCCN)C(=O)N[C@H](Cc1ccccc1)C(=O)O [Retro-Enantio LFB 17-31] |  |  |  |  | % Hemolysis (human red blood cells): 3.31% |
| FKARRWAWRMKKLGA-OH [LFB A3, 7] |  |  |  |  | EC 50 (toxicity, hemolysis) (human red blood cells; red cells of human): >1000 µg/mL |

Continued, in another order:

| MIC E. coli ([1]; ATCC 25922) | Minimum inhibitory concentration (MIC) E. coli ATCC 25922 ([1]; Table 1, value in parentheses) | MIC S. aureus ([2]; ATCC 25923) | Minimum inhibitory concentration (MIC) S. aureus ATCC 25923 ([2]; Table 1, value in parentheses) | Molecule | other results |
| --- | --- | --- | --- | --- | --- |
| 80 µg/mL (≈ 41.7 µM) | 43 µM | 200 µg/mL (≈ 104 µM) | 108 µM | CSCC[C@H](NC(=O)[C@H](CCCNC(=N)N)NC(=O)[C@H](Cc1c[nH]c2ccccc12)NC(=O)[C@H](CCC(N)=O)NC(=O)[C@H](Cc1c[nH]c2ccccc12)NC(=O)[C@H](CCCNC(=N)N)NC(=O)[C@H](CCCNC(=N)N)NC(=O)[C@H](CSCNC(C)=O)NC(=O)[C@@H](N)CCCCN)C(=O)N[C@@H](CCCCN)C(=O)N[C@@H](CCCCN)C(=O)N[C@@H](CC(C)C)C(=O)NCC(=O)N[C@@H](C)C(=O)O [LFB 18-31] (H-KC(Acm)RRWQWRMKKLGA-OH; N-terminus and C-terminus assumed) |  |
|  | 120 µM |  | > 150 µM | CSCC[C@H](NC(=O)[C@H](CCCNC(=N)N)NC(=O)[C@H](Cc1c[nH]c2ccccc12)NC(=O)[C@H](CCC(N)=O)NC(=O)[C@H](Cc1c[nH]c2ccccc12)NC(=O)[C@H](CCCNC(=N)N)NC(=O)[C@H](CCCNC(=N)N)NC(=O)[C@@H](N)CSCNC(C)=O)C(=O)N[C@@H](CCCCN)C(=O)N[C@@H](CCCCN)C(=O)N[C@@H](CC(C)C)C(=O)NCC(=O)N[C@@H](C)C(=O)O [LFB 19-31] (H-C(Acm)RRWQWRMKKLGA-OH; N-terminus and C-terminus assumed) |  |
| 20 µg/mL (≈ 9.73 µM) | 10 µM | 200 µg/mL (≈ 97.3 µM) | 100 µM | CSCC[C@H](NC(=O)[C@H](CCCNC(=N)N)NC(=O)[C@H](Cc1c[nH]c2ccccc12)NC(=O)[C@H](CCC(N)=O)NC(=O)[C@H](Cc1c[nH]c2ccccc12)NC(=O)[C@H](CCCNC(=N)N)NC(=O)[C@H](Cc1ccccc1)NC(=O)[C@H](CSCNC(C)=O)NC(=O)[C@H](CCCCN)NC(=O)[C@@H](N)Cc1ccccc1)C(=O)N[C@@H](CCCCN)C(=O)N[C@@H](CCCCN)C(=O)N[C@@H](CC(C)C)C(=O)NCC(=O)N[C@@H](C)C(=O)O [LFB F4] (H-FKC(Acm)FRWQWRMKKLGA-OH; N-terminus and C-terminus assumed) |  |
| 10 µg/mL |  | 5 µg/mL |  | GIGKFLKKARKFGRAWVRILKKG [Tosmag W16] |  |
